Measured values from patent US10377818B2, “Method of treating glioma” (The Board of Trustees of the Leland Stanford Junior …, priority 2015, dated 2019).
Read-outs that look alike come from different tables or passages of the source.

Assays:
[1] = tested on: SU-pcGBM2 cells; test: EdU incorporation assay, proliferation index of pHGG cells (SU-pcGBM2); assay type: cell-based, human; conditions: for potency of proliferation promotion compared with NLGN3: pHGG cells, dose curves 0-100 nM; for effect on proliferation index relative to aCSF control: recombinant candidate proteins at 100 nM for 24 hours; for effect on 50 nM NLGN3-induced increase in proliferation index: inhibitor 100 nM, EdU assay; for effect on the proliferative effect of active CM: 100 nM TRKB inhibitor ANA12 in combination with 500 nM NRXN
[2] = tested on: NLGN3 mRNA in SU-pcGBM2 cells; test: qPCR of NLGN3 gene expression in SU-pcGBM2 cells; assay type: cell-based, human; conditions: for effect on soluble NLGN3-induced increase in NLGN3 gene expression: 50 nM NLGN3 plus inhibitor, BKM120 500 nM (FIG. 5E) or 100 nM (FIG. 29), RAD001 100 nM
[3] = tested on: secreted NLGN3; test: Secreted NLGN3 in active CM of acute cortical slices incubated with protease inhibitors, Western blot; assay type: cell-based, mouse; conditions: slices incubated with protease inhibitor during optogenetic stimulation, preliminary experiments
Experimental: (§1) Thy1::ChR2 or WT mice between the age of 4-7 weeks were briefly exposed to CO2, and immediately decapitated. Extracted brains were placed in oxygenated sucrose solution and sliced in 350-μm sections using a vibratome (Leica VT 1200S, Buffalo Grove, Ill.). Slices were then placed in buffering solution (aCSF; 119 mM NaCl, 11 mM D-glucose, 25 mM NaHCO3, 2.5 mM KCl, 1.2 mM NaH2PO4, 2.3 mM MgCl2, and 2.5 mM CaCl2) and allowed to recover for at least an hour. After recovery, slices were then moved into a 24 well plate and stimulated using a blue-light LED from a microscope objective. The stimulation paradigm mirrored in vivo experiments, using 20-Hz pulses of blue light for a 30 s on, 90 s off cycle over a period of 30 minutes. Surrounding medium was then collected for immediate use or frozen for future experiments.
A series of similar preliminary experiments were performed in which acute cortical slices were incubated with different protease inhibitors during optogenetic stimulation and then the active CM was analyzed by Western blot for secreted NLGN3.
Role for MMP9 in NLGN3 secretion: Acute cortical slices from Thy1::ChR2 mice were optogenetically-stimulated in the presence or absence of protease inhibitors as indicated. Conditioned media was analyzed by Western blot for secreted NLGN3 content.

[4] = tested on: pHGG cells; test: pHGG cell proliferation with active CM from slices stimulated in presence of protease inhibitor; assay type: cell-based, human; conditions: inhibitor present during optogenetic stimulation of slices
Source text: MMP inhibition abrogates activity-regulated glioma proliferation. Acute cortical slices were optogenetically-stimulated in the presence or absence of a protease inhibitor as in Example 14, and pHGG cells were exposed to the CM. As expected, active CM in the absence of protease inhibitors contained secreted NLGN3 (FIG. 37) and promoted glioma cell proliferation (FIG. 38).
MMP inhibition in situ reduces activity-regulated glioma cell proliferation in vitro Active CM from Thy1::ChR2 cortical slices were incubated with either the multi-MMP inhibitor batimastat (A) or the ADAM17 inhibitor TAPI (B) during optogenetic stimulation and the active CM collected. Unconditioned media (aCSF) with or without inhibitor was used in control wells. Data shown as mean±SEM. One-way ANOVA, *P<0.05, ***P<0.001. n.s.=P>0.05.

[5] = tested on: soluble NLGN3 in the CM (NLGN3 secretion); test: Soluble NLGN3 in CM of optogenetically stimulated acute cortical slices, 2D-PAGE and mass spectrometry; assay type: cell-based, mouse; conditions: slices incubated with inhibitor during optogenetic stimulation; pilot experiment
Experimental: as §1

[6] = tested on: SU-pcGBM2 cells; assay type: cell-based, human

**Q.** How did the “potency of proliferation promotion compared with NLGN3” value [1] turn out when “BDNF: Recombinant brain-derived neurotrophic factor (R&D Systems), candidate mitogen” was run?
**A.** less potently than NLGN3

**Q.** And the “effect on proliferation index relative to aCSF control” value [1]?
**A.** promote glioma cell proliferation

**Q.** How did the “effect on 50 nM NLGN3-induced increase in proliferation index” value [1] turn out when `CO[C@H]1C[C@@H]2CC[C@@H](C)[C@@](O)(O2)C(=O)C(=O)N2CCCC[C@H]2C(=O)O[C@H]([C@H](C)C[C@@H]2CC[C@@H](OCCO)[C@H](OC)C2)CC(=O)[C@H](C)/C=C(\C)[C@@H](O)[C@@H](OC)C(=O)[C@H](C)C[C@H](C)/C=C/C=C/C=C/1C` [RAD001, reference compound] was run?
**A.** blocks 50 nM NLGN3-induced proliferation

**Q.** And the “effect on soluble NLGN3-induced increase in NLGN3 gene expression” value ([2]; 12 h)?
**A.** prevented the feed-forward effect of NLGN3 on NLGN3 gene expression

**Q.** How did the “secreted NLGN3 levels in active CM” value [3] turn out when `COc1ccc(S(=O)(=O)N2CCN(C(=O)OCc3ccccc3)CC2C(=O)NO)cc1` (stereo not drawn) [MMP9/13 Inhbitor II] was run?
**A.** significant decrease in NLGN3 levels

**Q.** Which “secreted NLGN3 levels in active CM” value [3] does the source give for `CC(C)ON(CC(=O)NO)S(=O)(=O)c1ccc(-c2ccccc2)cc1` [ARP100] here?
**A.** No detectable decrease in secreted NLGN3

**Q.** Which “secreted NLGN3 levels in active CM” value [3] does the source give for TAPI here?
**A.** no effect on NLGN3 levels was observed

**Q.** What about the “secreted NLGN3 levels in active CM” value ([3]; listed as ADAM17 inhibitor) of the same molecule?
**A.** did not decrease NLGN3 levels

**Q.** What about the “effect on the mitogenic effect of active CM” value [4] of the same molecule?
**A.** did not alter the mitogenic effect of active CM

**Q.** Which results are given for “GRP78: Recombinant 78-kDa glucose-regulated protein (Abcam), known glioma mitogen”?
**A.** potency of proliferation promotion compared with NLGN3 [1]: less potently than NLGN3; effect on proliferation index relative to aCSF control [1]: promote glioma cell proliferation

**Q.** How did the “effect on the proliferative effect of active CM” value [1] turn out when `O=C(Nc1ccccc1C(=O)NC1CCCCNC1=O)c1cc2ccccc2s1` (stereo not drawn) [ANA12, reference compound] was run?
**A.** completely abrogates the proliferative effect of active CM

**Q.** With `CNC(=O)[C@@H](NC(=O)[C@H](CCCc1ccccc1)[C@H](C)N(O)C=O)C(C)(C)C` [GI254023X] as the molecule, how does the “reduction in soluble NLGN3 in the CM” value [5] read?
**A.** ~50%

**Q.** For “EGF: Epidermal growth factor (Shenandoah), ligand known to stimulate the PI3K pathway”, which “effect on glioma cell NLGN3 expression” value ([2]; 50 nM EGF, 12 hour vs vehicle) is on record?
**A.** no effect was found

**Q.** What does the source list for “NRXN1β: Recombinant neurexin-1β (R&D Systems), binds NLGN3 with high affinity, used to deplete NLGN3”?
**A.** effect on the proliferative effect of active CM [1]: completely abrogates the proliferative effect of active CM; effect on proliferation index ([1]; NRXN1β alone (500 nM) added to aCSF or to CM from WT cortical slices): no effect on proliferation index; proliferation index ([1]; pHGG cells exposed to 50 nM NLGN3+500 nM NRXN1β): 0.28±0.01; proliferation index ([1]; pHGG cells exposed to Thy1::ChR2 CM+NRXN1β (500 nM)): 0.34±0.01

**Q.** Which “secreted NLGN3 levels in active CM” value [3] does the source give for `O=C(NO)[C@@H](Cc1ccccc1)NS(=O)(=O)c1ccc(-c2ccccc2)cc1` [MMP2/9 inhibitor SCBT inhibitor II, (2R)—N-hydroxy-3-phenyl-2-[(4-phenylphenyl)sulfonylamino]propanamide] here?
**A.** significant decrease in NLGN3 levels

**Q.** “ApoE: Recombinant candidate protein from proteomic analyses of cortical slice conditioned media” was tested. Which “effect on proliferation index relative to aCSF control” value [1] did it give?
**A.** did not differ

**Q.** What does the source list for `Cl.Nc1cc(C(F)(F)F)c(-c2cc(N3CCOCC3)nc(N3CCOCC3)n2)cn1` [BKM120, 5-(2,6-dimorpholin-4-ylpyrimidin-4-yl)-4-(trifluoromethyl)pyridin-2-amine hydrochloride]?
**A.** effect on 50 nM NLGN3-induced increase in proliferation index [1]: blocked; effect on soluble NLGN3-induced increase in NLGN3 gene expression ([2]; 12 h): blocked the soluble NLGN3-induced increase in NLGN3 gene expression; effect on NLGN3 expression in the absence of soluble NLGN3 exposure ([2]; BKM120 alone, 12 h): no effect on NLGN3 expression

**Q.** `NC1=N[C@H](O)[C@H]2[C@H]3O[C@]4(O)O[C@@H]([C@@H](O)[C@@]2(N1)[C@@H]4O)[C@]3(O)CO` [TTX, tetrodotoxin] was tested. Which proliferation index [6] did it give?
**A.** ~0.25
